# Measurements: publication PMC4081560 (PLoS ONE, 2014)
# System: tested viruses (K/09, rK09/NA:Y275, K/2785)
# Type: cell-based, 2009 pandemic H1N1 virus
# Conditions: read-out: concentration sufficient to restrict viral replication (EC50)
structure (smiles),measurement,value
"NC(=O)c1nc(F)cnc1O [Favipiravir, 6-fluoro-3-hydroxy-2-pyrazinecarboxamide]",EC50,8.39 to 14.7 µM
